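GI50: concentration for 50% inhibition of growth. At the TGI there is no net growth.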
Key:
Test in all cases: DTP human tumour cell line panel, 384-well format
[1] = tested on: ACHN renal
[2] = tested on: HT29 colon
[3] = tested on: NCI-H460 NSCLC
[4] = tested on: RXF 393 renal
[5] = tested on: M14 melanoma
[6] = tested on: HCT-15 colon
[7] = tested on: OVCAR-4 ovarian
[8] = tested on: HL-60(TB) leukemia
[9] = tested on: MOLT-4 leukemia
[10] = tested on: MDA-MB-468 breast
[11] = tested on: IGROV1 ovarian
[12] = tested on: A498 renal
[13] = tested on: SK-OV-3 ovarian
[14] = tested on: CCRF-CEM leukemia
[15] = tested on: SF-295 CNS
[16] = tested on: OVCAR-5 ovarian
[17] = tested on: HOP-62 NSCLC
[18] = tested on: U251 glioblastoma
[19] = tested on: HCT-116 colon
[20] = tested on: 786-0 renal
[21] = tested on: COLO 205 colon
[22] = tested on: SK-MEL-5 melanoma
[23] = tested on: BT-549 breast
[24] = tested on: CAKI-1 renal
[25] = tested on: KM12 colon
[26] = tested on: TK-10 renal
[27] = tested on: SK-MEL-2 melanoma
[28] = tested on: T-47D breast
[29] = tested on: RPMI-8226 leukemia
[30] = tested on: NCI-H322M lung
[31] = tested on: SNB-19 CNS
[32] = tested on: UACC-62 melanoma
[33] = tested on: HCC-2998 colon
[34] = tested on: OVCAR-3 ovarian
[35] = tested on: NCI/ADR-RES ovarian
[36] = tested on: SK-MEL-28 melanoma
[37] = tested on: NCI-H226 lung
[38] = tested on: OVCAR-8 ovarian
[39] = tested on: SW-620 colon
[40] = tested on: SNB-75 CNS
[41] = tested on: SF-268 CNS
[42] = tested on: HS 578T breast
[43] = tested on: MCF7 breast
[44] = tested on: NCI-H522 lung
[45] = tested on: DU-145 prostate
[46] = tested on: MDA-MB-435 melanoma
[47] = tested on: SN12C renal
[48] = tested on: SF-539 CNS
[49] = tested on: MALME-3M melanoma
[50] = tested on: MDA-MB-231 breast
[51] = tested on: A549 NSCLC
[52] = tested on: EKVX NSCLC
[53] = tested on: HOP-92 NSCLC
[54] = tested on: NCI-H23 lung
[55] = tested on: SR leukemia
[56] = tested on: PC-3 prostate
[57] = tested on: UACC-257 melanoma
[58] = tested on: K-562 leukemia
[59] = tested on: LOX IMVI melanoma
[60] = tested on: UO-31 renal

## C[C@@]1(c2ncncc2F)NC(=O)c2cc(-c3cn[nH]c3)ccc21
[1]
  GI50: 20.9 µM
  TGI: 69.8 µM
[2]
  GI50: 5.11 µM
  TGI: 25.4 µM
[3]
  GI50: 15.5 µM
  TGI: 41.6 µM
[4]
  GI50: 25.3 µM
  TGI: 42.4 µM
[5]
  GI50: 5.45 µM
  TGI: 22 µM
[6]
  GI50: 15.9 µM
  TGI: > 83.9 µM
[7]
  GI50: 42 µM
  TGI: 88.8 µM
[8]
  GI50: 5.53 µM
  TGI: 16.7 µM
[9]
  GI50: 13.8 µM
  TGI: 27.8 µM
[10]
  GI50: 5.03 µM
  TGI: 14.4 µM
[11]
  GI50: 20.5 µM
  TGI: 56.1 µM
[12]
  GI50: 10.9 µM
  TGI: > 92 µM
[13]
  GI50: 28.9 µM
  TGI: > 71.3 µM
[14]
  GI50: 2.74 µM
  TGI: 7.58 µM
[15]
  GI50: 28.5 µM
  TGI: > 85 µM
[16]
  GI50: 16.3 µM
  TGI: 50.2 µM
[17]
  GI50: 16 µM
  TGI: 50.8 µM
[18]
  GI50: 11.1 µM
  TGI: 48.4 µM
[19]
  GI50: 6.88 µM
  TGI: > 100 µM
[20]
  GI50: 16 µM
  TGI: 35.1 µM
[21]
  GI50: 2.01 µM
  TGI: 4.03 µM
[22]
  GI50: 13 µM
  TGI: 31 µM
[23]
  GI50: 9.62 µM
  TGI: 24.2 µM
[24]
  GI50: 20.1 µM
  TGI: 63.4 µM
[25]
  GI50: 15.8 µM
  TGI: 35.1 µM
[26]
  GI50: 15.8 µM
  TGI: 36 µM
[27]
  GI50: 31.8 µM
  TGI: 54 µM
[28]
  GI50: 30.9 µM
  TGI: 82.1 µM
[29]
  GI50: 24 µM
  TGI: 41.3 µM
[30]
  GI50: 22.4 µM
  TGI: 58.4 µM
[31]
  GI50: 28.8 µM
  TGI: > 100 µM
[32]
  GI50: 12.2 µM
  TGI: 28.8 µM
[33]
  GI50: 12.6 µM
  TGI: 34.3 µM
[34]
  GI50: 22.2 µM
  TGI: 52.4 µM
[35]
  GI50: 62.6 µM
  TGI: > 100 µM
[36]
  GI50: 11.8 µM
  TGI: 27.6 µM
[37]
  GI50: 18.4 µM
  TGI: 60.7 µM
[38]
  GI50: 25.8 µM
  TGI: 82.6 µM
[39]
  GI50: 2.03 µM
  TGI: 5.93 µM
[40]
  GI50: 14.1 µM
  TGI: 28.4 µM
[41]
  GI50: 13 µM
  TGI: 31 µM
[42]
  GI50: 18.4 µM
  TGI: 35.2 µM
[43]
  GI50: 26.6 µM
  TGI: > 83 µM
[44]
  GI50: 4.74 µM
  TGI: 38.6 µM
[45]
  GI50: 16.2 µM
  TGI: > 100 µM
[46]
  GI50: 15.7 µM
  TGI: 38.3 µM
[47]
  GI50: 17.3 µM
  TGI: 49.9 µM
[48]
  GI50: 12.1 µM
  TGI: 29.1 µM
[49]
  GI50: 2.77 µM
  TGI: 14.4 µM
[50]
  GI50: 14.9 µM
  TGI: 33.1 µM
[51]
  GI50: 17.3 µM
  TGI: > 100 µM
[52]
  GI50: 16.7 µM
  TGI: 42.5 µM
[53]
  GI50: 19.4 µM
  TGI: 47.5 µM
[54]
  GI50: 10.4 µM
  TGI: 25.2 µM
[55]
  GI50: 2.56 µM
  TGI: 5.45 µM
[56]
  GI50: 21.6 µM
  TGI: 71.1 µM
[57]
  GI50: 17.8 µM
  TGI: 44.9 µM
[58]
  GI50: 11.2 µM
  TGI: > 100 µM

## CC(C)c1cc(CNc2nc(Nc3cc(C4CC4)[nH]n3)cc(N3CCN(C)CC3)n2)on1
[1]
  GI50: 0.225 µM
  TGI: 13.4 µM
[59]
  GI50: 0.0298 µM
  TGI: 0.164 µM
[2]
  GI50: 0.0217 µM
  TGI: 1.48 µM
[3]
  GI50: < 0.01 µM
  TGI: 0.141 µM
[4]
  GI50: 0.0604 µM
  TGI: 0.248 µM
[5]
  GI50: 0.016 µM
  TGI: 1.74 µM
[6]
  GI50: 0.246 µM
  TGI: 2.93 µM
[7]
  GI50: 1.16 µM
  TGI: 4.54 µM
[8]
  GI50: < 0.01 µM
[9]
  GI50: < 0.01 µM
  TGI: 0.0169 µM
[10]
  GI50: 0.0141 µM
  TGI: 0.0426 µM
[12]
  GI50: 0.189 µM
  TGI: 12.4 µM
[13]
  GI50: 0.0696 µM
  TGI: 12.7 µM
[15]
  GI50: 0.063 µM
  TGI: 1.05 µM
[17]
  GI50: 0.0692 µM
  TGI: 0.306 µM
[18]
  GI50: 0.209 µM
  TGI: 10.5 µM
[20]
  GI50: 0.135 µM
  TGI: 0.904 µM
[21]
  GI50: < 0.01 µM
  TGI: 0.0211 µM
[22]
  GI50: 0.258 µM
  TGI: 1.73 µM
[23]
  GI50: 0.0341 µM
  TGI: 0.197 µM
[25]
  GI50: < 0.01 µM
  TGI: 0.0638 µM
[26]
  GI50: 0.137 µM
  TGI: 0.587 µM
[28]
  GI50: 0.267 µM
  TGI: 17.3 µM
[29]
  GI50: 0.0196 µM
  TGI: 0.188 µM
[30]
  GI50: 0.238 µM
  TGI: 1.28 µM
[31]
  GI50: 0.136 µM
  TGI: 11.7 µM
[32]
  GI50: 0.0473 µM
  TGI: 1.59 µM
[33]
  GI50: 0.203 µM
  TGI: 1.98 µM
[34]
  GI50: 0.0316 µM
  TGI: 0.4 µM
[35]
  GI50: 2.67 µM
  TGI: 14.1 µM
[36]
  GI50: 0.121 µM
  TGI: 1.39 µM
[37]
  GI50: 0.0174 µM
  TGI: 0.132 µM
[60]
  GI50: 0.221 µM
  TGI: 1.27 µM
[38]
  GI50: 0.165 µM
  TGI: 1.15 µM
[39]
  GI50: 0.0239 µM
  TGI: 1.19 µM
[40]
  GI50: 0.0136 µM
  TGI: 0.165 µM
[41]
  GI50: 0.0307 µM
  TGI: 0.26 µM
[42]
  GI50: 0.0423 µM
  TGI: 0.204 µM
[43]
  GI50: < 0.01 µM
  TGI: 10.9 µM
[44]
  GI50: 0.0149 µM
  TGI: 0.598 µM
[45]
  GI50: 0.12 µM
  TGI: 0.769 µM
[46]
  GI50: 0.209 µM
  TGI: 2.42 µM
[47]
  GI50: 0.0224 µM
  TGI: 0.207 µM
[48]
  GI50: 0.0311 µM
  TGI: 0.228 µM
[49]
  GI50: 0.0455 µM
  TGI: 1.85 µM
[50]
  GI50: 0.0378 µM
  TGI: 1.49 µM
[51]
  GI50: 0.0201 µM
  TGI: 6.83 µM
[52]
  GI50: 0.0288 µM
  TGI: 0.359 µM
[54]
  GI50: 0.0145 µM
  TGI: 0.189 µM
[55]
  GI50: < 0.01 µM
[56]
  GI50: 0.0815 µM
  TGI: 2.61 µM
[57]
  GI50: 1.23 µM
  TGI: 2.73 µM
[58]
  GI50: < 0.01 µM
  TGI: 0.0178 µM

— PubChem BioAssay (NCI)
